According to PMC5416783, “Inhibition of homologous phosphorolytic ribonucleases by citrate may represent an evolutionarily conserved communicative link between RNA degradation and central metabolism” (Nucleic Acids Research, 2017):

Columns and labels:
Experiment in all cases: end-point exoribonuclease gel assay, […]'-FAM-A20 RNA
Type in all cases: biochemical
[1] = molecular target: T1, H. sapiens PNPase (hPNPase) (Homo sapiens, UniProt Q8TCS8); settings: inhibition; 700 nM FAM-A20 RNA, 240 nM enzyme, 3.75 mM MgCl2, phosphate, pH 8, 37 °C, 60 min; control without citrate 8.4 ± 2.8 %
T1 construct: gene PNPT1; N-terminal hexahistidine tag (pET-28b), codon-optimised, expressed in E. coli BL21(DE3)pLysS; homotrimer
T1 sequence (Q8TCS8 46-783): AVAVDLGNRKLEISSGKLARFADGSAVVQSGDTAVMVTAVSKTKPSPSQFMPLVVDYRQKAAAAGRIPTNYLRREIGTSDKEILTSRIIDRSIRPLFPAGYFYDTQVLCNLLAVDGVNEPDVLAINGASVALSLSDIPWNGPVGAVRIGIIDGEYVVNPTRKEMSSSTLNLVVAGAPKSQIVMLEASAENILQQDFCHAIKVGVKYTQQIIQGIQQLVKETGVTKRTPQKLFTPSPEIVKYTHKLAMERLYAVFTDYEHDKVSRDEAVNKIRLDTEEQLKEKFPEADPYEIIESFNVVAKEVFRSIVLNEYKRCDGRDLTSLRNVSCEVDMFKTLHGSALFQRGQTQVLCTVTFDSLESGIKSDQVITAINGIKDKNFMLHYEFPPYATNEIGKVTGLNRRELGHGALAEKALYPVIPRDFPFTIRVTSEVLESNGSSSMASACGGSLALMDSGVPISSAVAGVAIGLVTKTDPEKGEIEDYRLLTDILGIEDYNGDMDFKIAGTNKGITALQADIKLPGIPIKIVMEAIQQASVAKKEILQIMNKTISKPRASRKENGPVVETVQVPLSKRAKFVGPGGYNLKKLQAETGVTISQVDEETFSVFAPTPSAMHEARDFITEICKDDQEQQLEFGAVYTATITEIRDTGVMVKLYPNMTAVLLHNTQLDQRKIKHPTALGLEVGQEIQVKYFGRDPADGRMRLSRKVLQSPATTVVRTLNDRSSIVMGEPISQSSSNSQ

[2] = molecular target: T2, Synechocystis sp. PNPase (SspPNPase) (Synechocystis sp. PCC 6803, UniProt P72659); settings: inhibition; 700 nM FAM-A20 RNA, 240 nM enzyme, 3.75 mM MgCl2, phosphate, pH 8, 37 °C, 30 min; control without citrate 2.2 ± 0.2 %
T2 construct: gene pnp; recombinant, commercial (Sigma)
T2 sequence (P72659 1-718): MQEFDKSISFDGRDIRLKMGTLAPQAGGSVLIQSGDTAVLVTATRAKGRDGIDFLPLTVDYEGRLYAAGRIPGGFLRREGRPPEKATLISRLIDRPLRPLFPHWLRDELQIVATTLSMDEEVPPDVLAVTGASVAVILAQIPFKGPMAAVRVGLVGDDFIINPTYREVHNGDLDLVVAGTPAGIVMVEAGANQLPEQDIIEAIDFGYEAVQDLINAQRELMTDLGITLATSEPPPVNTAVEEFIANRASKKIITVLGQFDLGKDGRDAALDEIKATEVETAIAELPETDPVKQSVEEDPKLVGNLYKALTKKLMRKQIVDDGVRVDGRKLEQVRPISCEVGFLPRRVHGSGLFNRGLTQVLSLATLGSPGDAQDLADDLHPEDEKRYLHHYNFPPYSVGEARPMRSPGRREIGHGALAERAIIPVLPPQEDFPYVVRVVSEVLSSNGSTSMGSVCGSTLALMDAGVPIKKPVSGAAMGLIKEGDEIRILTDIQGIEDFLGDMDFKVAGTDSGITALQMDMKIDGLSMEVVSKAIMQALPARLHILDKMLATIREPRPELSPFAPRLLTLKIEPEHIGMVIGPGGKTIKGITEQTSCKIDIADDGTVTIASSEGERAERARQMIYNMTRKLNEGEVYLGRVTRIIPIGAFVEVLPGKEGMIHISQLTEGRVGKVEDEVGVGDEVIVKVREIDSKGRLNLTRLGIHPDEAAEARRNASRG

[3] = molecular target: T3, S. solfataricus Exosome (SsoExosome) (Saccharolobus solfataricus, UniProt Q9UXC0+Q9UXC2); settings: inhibition; 700 nM FAM-A20 RNA, 240 nM enzyme, 3.75 mM MgCl2, phosphate, pH 8, 37 °C, 10 min; control without citrate 4.0 ± 0.5 %
T3 construct: gene rrp41; N-terminal hexahistidine Rrp4 co-expressed with untagged Rrp41 and Rrp42 in E. coli BL21(DE3)pLysS; codon-optimised; trimer of Rrp41/Rrp42 dimers with Rrp4 cap; with Exosome complex component Rrp4
T3 sequence (Q9UXC2 1-248): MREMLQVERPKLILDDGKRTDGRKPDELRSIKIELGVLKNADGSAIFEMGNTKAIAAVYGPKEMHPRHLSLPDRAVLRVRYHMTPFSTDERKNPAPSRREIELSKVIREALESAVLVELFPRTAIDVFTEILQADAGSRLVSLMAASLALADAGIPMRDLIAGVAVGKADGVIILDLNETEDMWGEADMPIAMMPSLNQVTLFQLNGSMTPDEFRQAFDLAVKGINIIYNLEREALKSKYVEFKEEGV
T3 sequence (Q9UXC0 1-275): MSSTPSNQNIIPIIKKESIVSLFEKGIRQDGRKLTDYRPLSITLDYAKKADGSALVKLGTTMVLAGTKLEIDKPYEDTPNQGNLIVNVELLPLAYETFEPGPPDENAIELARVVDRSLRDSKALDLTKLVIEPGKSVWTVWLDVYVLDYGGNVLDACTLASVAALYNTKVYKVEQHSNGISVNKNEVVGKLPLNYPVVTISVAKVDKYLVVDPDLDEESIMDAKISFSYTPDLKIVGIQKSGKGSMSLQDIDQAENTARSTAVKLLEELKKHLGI
T3 sequence (Q9UXC4 1-249 partner): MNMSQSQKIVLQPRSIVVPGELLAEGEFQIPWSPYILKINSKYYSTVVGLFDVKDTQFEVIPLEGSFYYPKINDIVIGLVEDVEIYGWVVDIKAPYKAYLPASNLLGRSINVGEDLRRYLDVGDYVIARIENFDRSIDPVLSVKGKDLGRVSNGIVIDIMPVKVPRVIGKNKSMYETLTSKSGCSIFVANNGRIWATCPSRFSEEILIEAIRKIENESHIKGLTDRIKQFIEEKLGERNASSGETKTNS

[4] = molecular target: T4, E. coli PNPase (EcPNPase) (Escherichia coli, UniProt P05055); settings: inhibition; 700 nM FAM-A20 RNA, 240 nM enzyme, 3.75 mM MgCl2, phosphate, pH 8, 37 °C, 10 min; control without citrate 2.2 ± 0.4 %
T4 construct: gene pnp; pET-Duet1_EcPNPase expressed in E. coli BL21(DE3)pLysS; homotrimer
T4 sequence (P05055 1-711): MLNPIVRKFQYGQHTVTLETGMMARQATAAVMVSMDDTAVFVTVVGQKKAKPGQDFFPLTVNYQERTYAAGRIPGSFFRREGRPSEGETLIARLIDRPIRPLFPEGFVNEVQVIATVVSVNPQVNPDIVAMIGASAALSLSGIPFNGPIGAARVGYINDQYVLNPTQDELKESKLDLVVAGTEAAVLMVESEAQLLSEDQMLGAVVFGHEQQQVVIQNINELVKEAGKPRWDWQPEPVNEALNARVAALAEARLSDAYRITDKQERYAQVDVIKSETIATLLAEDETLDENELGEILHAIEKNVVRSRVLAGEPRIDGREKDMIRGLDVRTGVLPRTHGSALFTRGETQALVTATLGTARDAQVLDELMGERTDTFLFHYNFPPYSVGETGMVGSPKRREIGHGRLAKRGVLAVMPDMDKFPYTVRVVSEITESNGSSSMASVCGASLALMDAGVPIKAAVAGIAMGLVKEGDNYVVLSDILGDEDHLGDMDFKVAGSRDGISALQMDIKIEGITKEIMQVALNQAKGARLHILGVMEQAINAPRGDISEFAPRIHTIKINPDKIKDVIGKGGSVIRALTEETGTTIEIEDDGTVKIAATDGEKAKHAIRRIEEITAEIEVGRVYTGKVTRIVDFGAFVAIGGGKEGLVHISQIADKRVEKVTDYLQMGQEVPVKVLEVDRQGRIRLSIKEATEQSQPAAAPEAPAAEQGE

Percentage substrate remaining at assay end-point / + citrate [1]: 22.8 ± 4.8%
Percentage substrate remaining at assay end-point / + citrate [2]: 6.9 ± 2.2%
Percentage substrate remaining at assay end-point / + citrate [3]: 13.6 ± 0.5%
Percentage substrate remaining at assay end-point / + citrate [4]: 5.6 ± 1.5%
Compound: O=C(O)CC(O)(CC(=O)O)C(=O)O [citrate]
